Assay results reported in the OPERA property sets (Mansouri et al. 2018).
≈ marks a conversion by molar mass, not a printed value.

details: not given

| Structure (SMILES) | logP |
| --- | --- |
| CCCCCCCCCCCCCCCCCC(=O)OC | 8.35 |
| CCCCCCCCCCCC(=O)OCC(CC)CCCC (stereo not given) | 8.03 |
| CCCCCCCCCCCC(=O)OCCCC | 6.51 |
| CCCCCCCCCCCCCCCC(=O)OC | 7.38 |
| CCCCCCCCCCCCCCCCCCCCCC(=O)OC | 10.2 |
| CCCCCCCCCCCC(=O)OCCC | 6.11 |
| CCCCCCCCCCCC(=O)OCC | 5.71 |
| CCCCCCCCCCCCCCCCCCCC(=O)OC | 9.3 |

Other lines, results leading:

| logP | Structure (SMILES) |
| --- | --- |
| 6.29 | CC/C=C\C/C=C\C/C=C\CCCCCCCC(=O)OC |
| 5.41 | CCCCCCCCCCCC(=O)OC |
| 6.41 | CCCCCCCCCCCCCC(=O)OC |
| 7.45 | CCCCCCCC/C=C\CCCCCCCC(=O)OC |
| 6.82 | CCCCC/C=C\C/C=C\CCCCCCCC(=O)OC |
| 9.32 | CCCCCCCC/C=C\CCCCCCCCCCCC(=O)OC |

same assay, conditions: 25 °C

| solubility | Structure (SMILES) |
| --- | --- |
| 0.011 µM (≈ 2.4 ng/mL) | CCCCCCCCCCc1ccccc1 |
